Values after ≈ are worked out from the molar mass of the structure shown. Counter-ions that a name gives are not always drawn.
Columns and labels:
Test in all cases: MIC
E. coli ML4707 = details: Escherichia coli, ML4707, E. coli ML4707; Table 7
P. cepacia OF189 = details: Burkholderia cepacia, OF189, P. cepacia OF189; Table 7
P. maltophilia OF247 = details: Stenotrophomonas maltophilia, Table 7
S. aureus Smith = details: Staphylococcus aureus, Table 7
C. freundii 1R524 = details: Citrobacter freundii, 1R524
C. freundii 1R527 = details: Citrobacter freundii, 1R527
E. colacae GN7471 = details: Table 7
P. aeruginosa 5D58-1 = details: Pseudomonas aeruginosa, 5D581, P. aeruginosa 5D58-1; Table 7
S. marcescens GN10857 = details: Serratia marcescens, GN10857, S. marcescens GN10857; Table 7
C. freundii 1R526 = details: Citrobacter freundii, 1R526
C. freundii GN7391 = details: Citrobacter freundii, GN7391, C. freundii GN7391; Table 7
C. freundii 1U589 = details: Citrobacter freundii, 1U589
E. cloacae 5D63-2 = details: Enterobacter cloacae, 5D632
E. cloacae 1V25 = details: Enterobacter cloacae
P. vulgaris GN7919 = details: Proteus vulgaris, GN7919
C. freundii 1U692 = details: Citrobacter freundii, 1U692
P. aeruginosa 4au542 = details: Pseudomonas aeruginosa, 4AU542, P. aeruginosa 4au542; Table 7
E. coli GN5482 = details: Escherichia coli, GN5482, E. coli GN5482; Table 7
C. freundii 5D60-1 = details: Citrobacter freundii, 5D601
C. freundii 1R523 = details: Citrobacter freundii, 1R523
K. pneumoniae 4at521 = details: Klebsiella pneumoniae, 4AT521
P. aeruginosa GN10362 = details: Pseudomonas aeruginosa, GN10362
E. cloacae 5D52-2 = details: Enterobacter cloacae, 5D522
E. cloacae 908RN = details: Enterobacter cloacae, E. colacae 908RN, Table 7
S. aureus IAA498 = assay type: cell-based; details: Staphylococcus aureus, Table 7
Protocol: (§1) The minimum inhibition concentrations (MIC) of the compounds obtained in the respective examples described above were measured according to the standard method of Japanese Chemotherapy Association.

E. cloacae 1V247 = assay type: cell-based; details: Enterobacter cloacae, Table 8
Protocol: as §1

## CC(=O)Oc1ccc(C(=O)NNC(=O)C(C)(C)ON=C(C(=O)NC2C(=O)N3C(C(=O)O)=C(CSc4cc(C)nc5c(C(=O)O)cnn45)CSC23)c2csc(N)n2)cc1OC(C)=O (stereo not shown) [Example 53, 7-{2-[2-amino-1,3-thiazol-4-yl]-2-[1-(3-(3,4-diacetoxybenzoyl)carbazoyl)-1-methylethoxyimino]acetamido}-3-[(3-carboxy-5-methylpyrazolo[1,5-a]pyrimidin-7-yl)thiomethyl-3-cephem-4-carboxylic acid sodium salt]
E. coli ML4707
  MIC: 0.012 µg/mL
P. cepacia OF189
  MIC: < 0.006 µg/mL
P. maltophilia OF247
  MIC: 0.78 µg/mL
S. aureus Smith
  MIC: 12.5 µg/mL
C. freundii 1R524
  MIC: 0.78 µg/mL
C. freundii 1R527
  MIC: 0.78 µg/mL
E. colacae GN7471
  MIC: 0.78 µg/mL
P. aeruginosa 5D58-1
  MIC: 0.1 µg/mL
S. marcescens GN10857
  MIC: 0.78 µg/mL
C. freundii 1R526
  MIC: 0.78 µg/mL
C. freundii GN7391
  MIC: 6.25 µg/mL
C. freundii 1U589
  MIC: 3.13 µg/mL
E. cloacae 5D63-2
  MIC: 0.39 µg/mL
E. cloacae 1V25
  MIC: 6.25 µg/mL
P. vulgaris GN7919
  MIC: 1.56 µg/mL
C. freundii 1U692
  MIC: 1.56 µg/mL
P. aeruginosa 4au542
  MIC: 0.05 µg/mL
E. coli GN5482
  MIC: 0.012 µg/mL
C. freundii 5D60-1
  MIC: 3.13 µg/mL
C. freundii 1R523
  MIC: 0.78 µg/mL
K. pneumoniae 4at521
  MIC: 0.012 µg/mL
P. aeruginosa GN10362
  MIC: 0.05 µg/mL
E. cloacae 5D52-2
  MIC: 0.1 µg/mL
E. cloacae 908RN
  MIC: 0.78 µg/mL
S. aureus IAA498
  MIC: 12.5 µg/mL
E. cloacae 1V247
  MIC: 12.5 µg/mL

## CC(=O)Oc1ccc(C(=O)NNC(=O)C(C)(C)ON=C(C(=O)NC2C(=O)N3C(C(=O)O)=C(CSc4cc(C)nc5nc(C(=O)O)nn45)CS[C@H]23)c2csc(N)n2)cc1OC(C)=O (stereo partly shown) [Example 45, 7-{2-[2-Amino-1,3-thiazol-4-yl]-2-[1-(3-(3,4-diacetoxybenzoyl)carbazoyl)-1-methylethoxyimino]acetamido}-3-[(2-carboxy-5-methyl-s-triazolo[1,5-a]pyrimidin-7-yl)thiomethyl]-3-cephem-4-carboxylic acid]
E. coli ML4707
  MIC: 0.05 µg/mL (≈ 0.0548 µM)
P. cepacia OF189
  MIC: 0.012 µg/mL (≈ 0.0132 µM)
P. maltophilia OF247
  MIC: 1.56 µg/mL (≈ 1.71 µM)
S. aureus Smith
  MIC: 12.5 µg/mL (≈ 13.7 µM)
C. freundii 1R524
  MIC: 0.78 µg/mL (≈ 0.855 µM)
C. freundii 1R527
  MIC: 3.13 µg/mL (≈ 3.43 µM)
E. colacae GN7471
  MIC: 1.56 µg/mL (≈ 1.71 µM)
P. aeruginosa 5D58-1
  MIC: 0.1 µg/mL (≈ 0.11 µM)
S. marcescens GN10857
  MIC: 1.56 µg/mL (≈ 1.71 µM)
C. freundii 1R526
  MIC: 1.56 µg/mL (≈ 1.71 µM)
C. freundii GN7391
  MIC: 12.5 µg/mL (≈ 13.7 µM)
C. freundii 1U589
  MIC: 3.13 µg/mL (≈ 3.43 µM)
E. cloacae 5D63-2
  MIC: 0.78 µg/mL (≈ 0.855 µM)
E. cloacae 1V25
  MIC: 6.25 µg/mL (≈ 6.85 µM)
P. vulgaris GN7919
  MIC: 3.13 µg/mL (≈ 3.43 µM)
C. freundii 1U692
  MIC: 1.56 µg/mL (≈ 1.71 µM)
P. aeruginosa 4au542
  MIC: 0.2 µg/mL (≈ 0.219 µM)
E. coli GN5482
  MIC: 0.05 µg/mL (≈ 0.0548 µM)
C. freundii 5D60-1
  MIC: 3.13 µg/mL (≈ 3.43 µM)
C. freundii 1R523
  MIC: 0.78 µg/mL (≈ 0.855 µM)
K. pneumoniae 4at521
  MIC: 0.05 µg/mL (≈ 0.0548 µM)
P. aeruginosa GN10362
  MIC: 0.2 µg/mL (≈ 0.219 µM)
E. cloacae 5D52-2
  MIC: 0.39 µg/mL (≈ 0.428 µM)
E. cloacae 908RN
  MIC: 1.56 µg/mL (≈ 1.71 µM)
S. aureus IAA498
  MIC: 25 µg/mL (≈ 27.4 µM)
E. cloacae 1V247
  MIC: 6.25 µg/mL (≈ 6.85 µM)
